From patent publication US8835428B2, “Diacylglycerol acyltransferase inhibitors” (Piramal Enterprises Limited, priority 2008, dated 2014) come the findings set out here.

The target in one experiment is T1, hDGAT1 (Homo sapiens, UniProt O75907).
T1 construct: host or cells: Sf9 insect cells (baculovirus); microsomal preparation
T1 sequence (O75907 1-488): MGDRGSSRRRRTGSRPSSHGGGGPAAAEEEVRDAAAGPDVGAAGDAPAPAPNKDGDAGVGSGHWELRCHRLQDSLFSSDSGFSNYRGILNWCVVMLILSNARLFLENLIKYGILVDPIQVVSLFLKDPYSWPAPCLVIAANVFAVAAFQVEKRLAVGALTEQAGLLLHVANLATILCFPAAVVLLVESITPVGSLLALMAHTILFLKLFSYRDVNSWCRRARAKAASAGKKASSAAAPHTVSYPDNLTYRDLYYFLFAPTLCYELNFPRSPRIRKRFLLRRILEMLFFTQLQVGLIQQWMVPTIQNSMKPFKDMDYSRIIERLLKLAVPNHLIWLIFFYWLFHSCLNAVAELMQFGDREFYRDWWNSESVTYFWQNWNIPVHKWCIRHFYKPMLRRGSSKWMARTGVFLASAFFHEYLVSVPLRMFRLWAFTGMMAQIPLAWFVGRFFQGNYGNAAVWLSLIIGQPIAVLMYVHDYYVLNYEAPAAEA
Description: In-vitro DGAT1 assay (hDGAT1 microsomes from Sf9 cells, 14C oleoyl CoA, triglyceride formation). It counts as biochemical. Conditions: At 1 μM. The method, then: In-vitro Protocol for DGAT1 Assay
Sf9 Culture and Treatment
Sf9 cells were grown in T25 flasks containing Graces's Insect media with 10% FBS with antibiotic (100 units/mL penicillin, 100 μg/mL streptomycin sulphate, 0.25 μg/mL Amptotericin B as Fungizone) grown in a 27° C. incubator:
hDGAT1ORF expression clone (RZPDo839C09146 in pDEST vector) was obtained from RZPD, Germany. hDGAT1 bacmid DNA was obtained by transformation of the hDGAT expression clone into DH10Bac E. coli competent cells. Approximately 1 μg of hDGAT1 bacmid DNA was infected into Sf9 cells with Cellfectin (Invitrogen) reagent. Following infection, Sf9 cells were incubated at 27° C. for 30 minutes. Five hours after infection, the media was replaced with growth media containing antibiotic (100 units/mL penicillin, 100 μg/mL streptomycin sulphate, 0.25 μg/mL Amptotericin B as Fungizone) and incubated at 27° C. for 72 hours. The supernatant containing the virus was centrifuged at 1500×g for 5 minutes, passed through 0.22 μm filter, and subsequently stored at 4° C. The virus was further amplified three more times by re-infection of Sf9 cells and the viral titer was determined by plaque assay.
Preparation of DGAT1 Microsomes from Sf9 Cells
Sf9 cells were seeded in spinner flasks on day 0 at a cell density of 1×10^6 and infected on day 1 with hDGAT1 baculovirus at a multiplicity of infection (MOI) of 5 and a cell density of 2×10^6. On day 3 (or 66-72 hours), cells were harvested and centrifuged at 2500×g for 10 minutes. Pellet was resuspended in lysis buffer (100 mM sucrose, 50 mM KCl, 40 mM KH2PO4, 30 mM EDTA, pH 7.2) and passed through 21-gauge needle approximately 10 times. The mixture was centrifuged at 12,000 rpm in a Sigma 12158-H rotor at 4° C. for 30 minutes. The supernatant was subjected to centrifugation at 35,000 rpm in a Beckman Ti-45 rotor at 4° C. for 1 hour. The resultant pellet containing the microsomes were resuspended overnight in 1 mL of lysis buffer and total protein concentration was estimated using Bradford Reagent. Microsomes were aliquoted and stored at −20° C.
Measurement of DGAT1 Activity
Frozen aliquots of hDGAT1 containing microsomes were thawed (5-10 mg/mL total protein) on ice and diluted to a working stock of 1 mg/mL with DGAT Assay Buffer (DAB). The DGAT reaction assay was performed by following the procedure described in U.S. Pat. No. 6,607,893 with some modifications that are described below.
Preparation of DGAT1 substrate mixture: 1 mL stock solution of DGAT1 substrate mixture contains (i) 5.6 μL of ^14C oleoyl CoA (16.8 nCi) and 35 μL 1,2-dioleoyl-sn-glycerol (409.5 μM) or (ii) 5.6 μL of ^14C oleoyl CoA (16.8 nCi) and 105 μL 1,2-dioleoyl-sn-glycerol (1228.5 μM) or (iii) 5.6 μL of ^14C oleoyl CoA (16.8 nCi) and 140 μL 1,2-dioleoyl-sn-glycerol (1638 μM).
1,2-sn-dioleoylglycerol substrate concentration in the 1 mL stock solution of DGAT1 substrate mixture was varied depending on the microsome concentration used in the assay reaction. 1,2-dioleoyl-sn-glycerol stock (19.5 mM) was prepared by dissolving 25 mg of 1,2-dioleoyl-sn-glycerol (Sigma, US) in 2060 μL of acetone. The assay was performed in duplicates in a reaction volume of 100 μL. The reaction volume consisted of: • (i) 27.5 μL of DGAT assay buffer (0.25M Sucrose, 1 mM EDTA (pH 8.0), 150 mM Tris-HCl, pH 7.4, 1.25 mg/mL, fatty acid free BSA), • (ii) 10 μL of compound, of present invention or standard (dissolved in DMSO and diluted to 10× with DAB and screened at 10 μM, 5 μM and 1 μM), • (iii) 60 μL DGAT1 substrate mixture taken from a 1 mL stock (16.8 nCi of ^14C oleoyl CoA and 409.5 μM or 1228.5 μM or 1638 μM of 1,2-dioleyl-sn-glycerol), • (iv) 2.5-10 μL of 1 mg/mL of microsomes (the amount of assay buffer was varied depending upon the concentration of microsome to make up the volume to 100 μL). Procedure:
The reaction was started by the addition of 2.5-10 μL of 1 mg/mL of microsomes (iv) to a mixture of (i), (ii) and (iii), vortexed and incubated at 37° C. for 10 minutes. […]
`COC(=O)[C@@H](NC(=O)c1cc(-c2ccc(NC(=O)Nc3ccc(F)c(F)c3)cc2)no1)C(C)C` [Example 129, (S)-methyl 2-(3-(4-(3-(3,4-difluorophenyl)ureido)phenyl)isoxazole-5-carboxamido)-3-methylbutanoate] displayed an inhibition at 1 µM of 50 to 75%.

`CC(C)[C@@H](NC(=O)c1cc(-c2ccc(NC(=O)Nc3cccc(C#N)c3)cc2)no1)C(=O)O` [Example 217, (R)-2-(3-(4-(3-(3-cyanophenyl)ureido)phenyl)isoxazole-5-carboxamido)-3-methylbutanoic acid] showed an inhibition at 1 µM of 50 to 75%.

As to `CC(C)[C@H](NC(=O)c1csc(-c2ccc(NC(=O)Nc3ccc(Cl)cc3Oc3ccccc3)cc2)n1)C(=O)O` [Example 365, (S)-2-(2-(4-(3-(4-chloro-2-phenoxyphenyl)ureido)phenyl)thiazole-4-carboxamido)-3-methylbutanoic acid], the inhibition at 1 µM was in the range of 50 to 75%.

`CC(C)[C@H](NC(=O)c1csc(-c2ccc(NC(=O)Nc3ccccc3Cl)cc2)n1)C(=O)O` [Example 369, (S)-2-(2-(4-(3-(2-Chlorophenyl)ureido)phenyl)thiazole-4-carboxamido)-3-methylbutanoic acid] showed an inhibition at 1 µM of 0 to 50%.

The compound `COc1ccc(NC(=O)Nc2ccc(-c3cc(C(=O)N[C@H](C(=O)O)C(C)C)on3)cc2)c(OC)c1` [Example 169, (S)-2-(3-(4-(3-(2,4-dimethoxyphenyl)ureido)phenyl)isoxazole-5-carboxamido)-3-methylbutanoic acid] registered an inhibition at 1 µM of 50 to 75%.

As to `Cc1ccc(NC(=O)Nc2ccc(-c3cc(C(=O)NC(C(=O)O)C(C)C)on3)cc2)cc1Cl` (centres unmarked) [Example 248, 2-(3-(4-(3-(3-Chloro-4-methylphenyl)ureido)phenyl)isoxazole-5-carboxamido)-3-methylbutanoic acid], the inhibition at 1 µM was in the range of 75 to 100%.

Compound `CC(C)C(NC(=O)c1cc(-c2ccc(NC(=O)Nc3ccccc3-c3ccccc3)cc2)no1)C(=O)O` (centres unmarked) [Example 291, 2-(3-(4-(3-Biphenyl-2-ylureido)phenyl)isoxazole-5-carboxamido)-3-methylbutanoic acid] yielded an inhibition at 1 µM of 75 to 100%.

For the compound `CC(C)[C@H](NC(=O)c1cc(-c2ccc(NC(=O)Nc3cc(C(F)(F)F)ccc3Cl)cc2)no1)C(=O)O` [Example 211, (S)-2-(3-(4-(3-(2-chloro-5-(trifluoromethyl)phenyl)ureido)phenyl)isoxazole-5-carboxamido)-3-methylbutanoic acid], the inhibition at 1 µM was 75 to 100%.

The experiment is the same for the next values; noted with them: At 5 μM.
Compound `COC(=O)[C@@H](NC(=O)c1nc(-c2ccc(NC(=O)NCc3ccccc3)cc2)no1)C(C)C` [Example 352, (S)-methyl 2-(3-(4-(3-benzylureido)phenyl)-1,2,4-oxadiazole-5-carboxamido)-3-methylbutanoate] returned an inhibition at 5 µM of 0 to 50%.

Take `COC(=O)C(Cc1ccccc1)NC(=O)c1cc(-c2ccc(NC(=O)Nc3ccc(F)cc3F)cc2)no1` (centres unmarked) [Example 245, Methyl 2-(3-(4-(3-(2,4-difluorophenyl)ureido)phenyl)isoxazole-5-carboxamido)-3-phenylpropanoate]: the inhibition at 5 µM fell in the range of 0 to 50%.

`COC(=O)[C@@H](NC(=O)c1nc(-c2ccc(NC(=S)Nc3ccc(F)cc3)cc2)no1)C(C)C` [Example 354, (S)-Methyl 2-(3-(4-(3-(4-fluorophenyl)thioureido)phenyl)-1,2,4-oxadiazole-5-carboxamido)-3-methylbutanoate] yielded an inhibition at 5 µM of 0 to 50%.

For the compound `COC(=O)C(NC(=O)c1cc(-c2ccc(NC(=O)Nc3ccccc3C)cc2)no1)C(C)C` (centres unmarked) [Example 153, Methyl 3-methyl-2-(3-(4-(3-o-tolylureido)phenyl)isoxazole-5-carboxamido) butanoate], the “% inhibition of hDGAT1” value is given as “+ (>0% Inhibition ≦50)”.

As for `COC(=O)C(Cc1ccccc1)NC(=O)c1cc(-c2ccc(NC(=O)Nc3ccc(C)cc3)cc2)no1` (centres unmarked) [Example 243, Methyl 3-phenyl-2-(3-(4-(3-p-tolylureido)phenyl)isoxazole-5-carboxamido) propanoate], the “% inhibition of hDGAT1” value is reported as “+ (>0% Inhibition ≦50)”.

Compound `COC(=O)[C@@H](NC(=O)c1nc(-c2ccc(NC(=O)Nc3ccc(C)cc3)cc2)no1)C(C)C` [Example 346, (S)-Methyl 3-methyl-2-(3-(4-(3-p-tolylureido)phenyl)-1,2,4-oxadiazole-5-carboxamido)butanoate] registered an inhibition at 5 µM of 50 to 75%.

Staying with this experiment, now noted: At 10 μM.
Consider `CC(C)[C@@H](NC(=NO)c1cc(-c2ccc(Nc3nc4ccc(F)cc4s3)cc2)no1)C(=O)O` [Example 41, (R)-2-({3-[4-(6-Fluoro-benzothiazol-2-ylamino)-phenyl]-N-hydroxy-isoxazole-5-carboximidoyl}-amino)-3-methyl-butyric acid], for which the inhibition at 10 µM was 0 to 50%.

On to `COC(=O)C(NC(=O)c1cc(-c2ccc(NC(=O)Nc3ccc(C)cc3)cc2)no1)C(C)C` (centres unmarked) [Example 125, Methyl 3-methyl-2-(3-(4-(3-p-tolylureido)phenyl)isoxazole-5-carboxamido)butanoate], for which the inhibition at 10 µM lay within 50 to 75%.

Regarding `COC(=O)C(C)NC(=O)c1cc(-c2ccc(NC(=O)Nc3c(F)cccc3F)c(C)c2)no1` (centres unmarked) [Example 101, Methyl 2-(3-(4-(3-(2,6-difluorophenyl)ureido)-3-methylphenyl)isoxazole-5-carboxamido)propanoate], the inhibition at 10 µM lay within 0 to 50%.

As to `COC(=O)[C@H]1CSC(c2cc(-c3ccc(Nc4nc5ccc(F)cc5s4)cc3)no2)=N1` [Example 11, (S)-2-{3-[4-(6-Fluoro-benzothiazol-2-ylamino)-phenyl]-isoxazol-5-yl}-4,5-dihydro-thiazole-4-carboxylic acid methyl ester], the inhibition at 10 µM lay within 0 to 50%.

Turning to `COC(=O)[C@@H](NC(=O)c1cc(-c2ccc(NC(=O)Nc3ccccc3)cc2)no1)C(C)C` [Example 76, (S)-3-Methyl-2-({3-[4-(3-phenyl-ureido)-phenyl]-isoxazole-5-carbonyl}-amino)-butyric acid methyl ester], the inhibition at 10 µM is 50 to 75%.

Take `Cc1cc(NC(=O)Nc2ccc(F)cc2)ccc1-c1cc(C(=O)NC(C(=O)O)C(C)C)on1` (centres unmarked) [Example 134, 2-(3-(4-(3-(4-fluorophenyl)ureido)-2-methylphenyl)isoxazole-5-carboxamido)-3-methylbutanoic acid]: the inhibition at 10 µM is 75 to 100%.

Broadly, the inhibition is the percentage by which the read-out fell short of the control. A higher inhibition goes with a response far below the control.
